Laboratory results published in patent US20260167654A1, “PLANT CELL WALL-DISSOLVING AGENT” (Kanazawa University, priority 2022, published 2026).

Tests used:
[1] = Viscosity measurement (Brookfield viscometer, CPE52 spindle); assay type: physicochemical
Method: The viscometer used was Brookfield LVDV2TCP with a CPE52 spindle, or Brookfield RVDV2T with a CPE52 spindle.
C1imC2OE3C obtained in Synthesis Example 1 and OE2imC2OE3C obtained in Synthesis Example 2 were measured for viscosity at 80° C. The viscometer used was Brookfield LVDV2TCP with a CPE52 spindle. The viscometer was heated to 80° C. by passing warm water therethrough, and the viscosity of the samples was measured.

[2] = State of the zwitterions at 25° C.; assay type: physicochemical; settings: room temperature (25° C.)
Method: C1imC2OE3C (R^1═CH3, A=imidazolium cation, R^3═CH2CH2, n=3, and B=—COO^−) obtained in Synthesis Example 1 and OE2imC2OE3C(R^1═H3C(OCH2CH2)2, A=imidazolium cation, R^3═CH2CH2, n=3, and B=—COO^−) obtained in Synthesis Example 2 were both liquid at room temperature (25° C.).

[3] = Cellulose solubility (cellulose added in 1 wt % steps, heating and stirring 1 hour, visual); assay type: physicochemical
Method: The cellulose solubility of C1imC2OE3C obtained in Synthesis Example 1, OE2imC2OE3C obtained in Synthesis Example 2, and OE2imC3C (R^1═H3C(OCH2CH2)2, A=imidazolium cation, B=—COO^−, and n=0 (a compound having no oxyalkylene structure between the cationic and anionic moieties; the compound described in Non-Patent Literature 2)) as a comparative example was measured. […] The concentration at which cellulose dissolution was confirmed was visually measured.
Thus, when heating to 80° C., a stirrer rotated in C1imC2P and started to rotate smoothly at 120° C. Accordingly, a cellulose solubility experiment was performed at 120° C. Avicel was added in increments of 1 wt %, and when dissolved over 1 hour, additional Avicel was added in increments of 1 wt %. As a result of the experiment, C1imC2P dissolved 4 wt % Avicel.

[4] = TG-DTA pyrolysis temperature (weight loss on heating at 10° C./min); assay type: physicochemical
Method: Experimental method: Under N2 atmosphere, the temperature was increased to 500° C. at a rate of 10° C./min starting at room temperature. The pyrolysis point was evaluated at the intersection of the tangent lines between the steady state and the decomposition.
C1imC2OE3C obtained in Synthesis Example 1 was heated at a rate of 10° C./min, and the temperature at which the weight loss occurred (pyrolysis temperature) was measured. As a result, this compound was thermally decomposed at about 249° C. and was stable up to 249° C.

[5] = Differential scanning calorimetry; assay type: physicochemical
Method: Experimental method: Under N2 atmosphere, liquid nitrogen was used during cooling. After the temperature was increased at a rate of 10° C./min to 20° C. below the pyrolysis point starting at 25° C., two sets of “cooling to −100° C. at a rate of −10° C./min→heating to 20° C. below the pyrolysis point at a rate of 10° C./min” were repeated (holding time: 5 minutes for each stage), followed by cooling down to 25° C.
C1imC2OE3C obtained in Synthesis Example 1 was subjected to differential scanning calorimetry.

Kluyveromyces marxianus = experiment: Toxicity to yeast (OD600 of culture in liquid medium); assay type: cell-based; settings: culturing at 50° C., concentration and time of the value not stated
Method: The toxicity of C1imC2P to yeast was examined. The yeast used was Kluyveromyces marxianus. C1imC2P was added to a liquid medium at concentrations of 0 mol/L, 0.01 mol/L, 0.05 mol/L, 0.1 mol/L, 0.5 mol/L and 1.0 mol/L respectively. This was inoculated with bacteria, and while culturing at 50° C., OD600 was measured with a plate reader 0, 2, 4, and 6 hours later. OD600 indicates the density of bacterial cells. Further, relative OD600 is a relative parameter when the control is 1.00. A higher value of relative OD600 indicates a lower toxicity of the zwitterion. The relative OD600 of C1imC2P was 0.77, indicating low toxicity.

Row | SMILES | Viscosity at 80° C. [1] | State at 25° C. [2] | Cellulose solubility ([3]; 100° C.) | Cellulose solubility ([3]; 120° C.) | stable (does not decompose) up to temperature [4] | pyrolysis temperature (temperature at which the weight loss occurred) ([4]; heated at a rate of 10° C./min) | did not change / in a liquid state from room temperature up to temperature [5] | Viscosity (in words) ([1]; 100 wt % zwitterion, room temperature (25° C.)) | relative OD600 (control is 1.00) (Kluyveromyces marxianus) | Cellulose solubility (Avicel dissolved) ([3]; 120° C., Avicel added in increments of 1 wt %, 1 hour each)
1 | COCCOCC[n+]1ccn(CCOCCOCCOCCC(=O)[O-])c1 [OE2imC2OE3C] | 810 mPa · s | liquid | 11 wt % | 11 wt % |  |  |  |  |  | 
2 | COCCOCCn1cc[n+](CCCC(=O)[O-])c1 [OE2imC3C, reference compound] | 940 mPa · s | solid | 6 wt % | 10 wt % |  |  |  |  |  | 
3 | C[n+]1ccn(CCOCCOCCOCCC(=O)[O-])c1 [Zwitterion C1imC2OE3C] | 2,500 mPa · s | liquid | 11 wt % | 14 wt % | up to 249 °C | about 249 °C | around 250 °C |  |  | 
4 | C[n+]1ccn(CCOP(=O)([O-])O)c1 [Zwitterion C1imC2P] |  | liquid |  |  |  |  |  | very high viscosity | 0.77 | 4 wt %
